Measured values as given in US4293489A, “Derivatives of A-30912A nucleus” (Eli Lilly and Company, priority 1980, dated 1981).
Starred links: 1 amine or outer side, 2 acyl side, 3 side chain; linkers in the order of their positions; H or OH if unused. Positions of bridges follow the written chain, without caps; N, C: chain ends. Non-standard residues stand in square brackets, D forms with d. Residues, ends and D or L forms follow the SMILES beside them. *: point of attachment. Orn(4R-OH,5R-OH) = O=C([C@H](C[C@@H](O)[C@@H](O)N[*:3])N[*:1])[*:2]; hTyr(3S-OH,4S-OH) = N[C@H](C(=O)O)[C@H](O)[C@@H](O)c1ccc(O)cc1; Pro(3S-OH,4S-Me) = C[C@H]1CN[C@H](C(=O)O)[C@H]1O; X28 = CCCCCCCC[S+]([O-])c1ccc(C(=O)*)cc1; X24 = CCCCCCCCCCCCCCOc1cccc(C(=O)*)c1; X18 = CCCCCCCCCCCCOc1ccc(CC(=O)*)cc1; X27 = CCCCCCCCCCCCOc1cccc(CC(=O)*)c1; X16 = CCCCCCCCOc1ccc(C=CC(=O)*)cc1; Hyp = O=C(O)[C@@H]1C[C@@H](O)CN1; X15 = CCCCCCCCOc1cccc(CC(=O)*)c1; X19 = CCCCCCOc1ccc(C=CC(=O)*)cc1

Columns and labels:
Candida albicans A-26 [1] = assay: Therapeutic activity against Candida albicans A-26 infection in X-irradiated mice, lowest active dose; format: in vivo; details: A26, light or radiation study, sc, X-irradiated mice, subcutaneous at 0, 4 and 24 hours post infection, survival, read-out: Lowest Active Dose
Experimental: (§1) The results of in vivo tests to evaluate the effectiveness of the compounds of Examples 3 and 4 against an infection caused by Candida albicans A-26 in mice are given in Table 13, where activity is measured by the ED50 value (the dose in mg/kg. required to cure 50% of the test animals). In a separate test, the results of which are also summarized in Table 13, activity is indicated by the lowest dose at which a significant anti-fungal effect is observed. In this test, groups of male albino mice (specific pathogen free), weighing 18 to 20 grams, are infected intravenously with Candida albicans A-26. The animals are X-irradiated 24 hours prior to infection at about 50 roentgens per minute for 8 minutes (400 total dose) to reduce immune responses to the infecting organism. At 0, 4, and 24 hours post infection each group of mice is given graded doses subcutaneously of the test compound as a suspension in 33% polyethylene glycol (PEG)-water. The day of death for each animal is recorded.
(§2) *Dosage Schedules: A. = 40, 20, 15 and 10 mg/kg; Dosages given 0, 4, and
(§3) 24 hours post injection as suspension of test compound in 30% PEGH2
(§4) O. Number of mice receiving test compounds at each dosage level: 6 mice
(§5) per group. Number of mice in control (untreated) group: 10 mice per group

Candida albicans A-26 [2] = assay: Therapeutic activity against Candida albicans A-26 infection in mice, ED50; format: in vivo; details: Candida albicans, A26, sc, doses 0, 4 and 24 hours post infection, increase in survival time vs control, Reed-Muench, read-out: ED50
Experimental: as §1, §2, §3, §4, §5
**As measured by increase in survival time of treated animals versus
control, calculated by method of Reed v Mueuch, American J. Hygiene, 27,

[3] = tested on: Trychophyton mentagrophyes #6; assay: Agar plate disc diffusion test, MIC per disc; format: cell-based, Trichophyton mentagrophytes; details: 0.1M sodium borate, pH 7.5, 24 hours, 30° C., * measurable zones with regrowth of organism around disc
Experimental: (§6) Tables 10 and 11 give the results of the testing in vitro of the compounds of Examples 3 and 4 by agar-plate disc-diffusion methods. In Table 10 activity is measured by the size (diameter in mm) of the observed zone of inhibition of the microorganism produced by the test compound. In Table 11, activity is measured by the minimal inhibitory concentration (MIC) of the substance (μg/disc) required to inhibit growth of the test organism. Table 12 gives the results of the testing in vitro of the p-(n-octyloxy)benzoyl derivative of A30912A nucleus [Formula III, R^1 is p-(n-octyloxy)benzoyl] against five strains of Candida albicans by the agar dilution method. In Table 12 activity is measured by the minimal inhibitory concentration (MIC) of the substance (μg/ml) required to inhibit the test organism.
(§7) ^(a) Compounds were suspended in 0.1M sodium borate solution, pH 7.5.
(§8) The compounds were tested at 20 μg/disc at top level and at twofold
(§9) dilutions until end points were reached. Incubation: 24 hours; 30°
*Measurable zones of inhibition with regrowth of organism around disc.

Candida albicans A-26 [4] = assay: Agar plate disc diffusion test, MIC per disc; format: cell-based; details: 0.1M sodium borate, pH 7.5, 24 hours, 30° C.
Experimental: as §6, §7, §8, §9

SMILES	minimal effective dose (Candida albicans A-26 [1])	ED50 (Candida albicans A-26 [2])	MIC [3]	MIC (Candida albicans A-26 [4])
CCCCCCCCCCCCCCOc1cccc(C(=O)N[C@H]2C[C@@H](O)[C@@H](O)NC(=O)[C@@H]3[C@@H](O)[C@@H](C)CN3C(=O)[C@H]([C@@H](C)O)NC(=O)[C@H]([C@H](O)[C@@H](O)c3ccc(O)cc3)NC(=O)[C@@H]3C[C@@H](O)CN3C(=O)[C@H]([C@@H](C)O)NC2=O)c1 (X24-[Orn(4R-OH,5R-OH)]T[Hyp][hTyr(3S-OH,4S-OH)]T[Pro(3S-OH,4S-Me)]; lactam 1-C)	> 40 mg/kg	> 50 mg/kg		
CCCCCCCCCCCCOc1cccc(CC(=O)N[C@H]2C[C@@H](O)[C@@H](O)NC(=O)[C@@H]3[C@@H](O)[C@@H](C)CN3C(=O)[C@H]([C@@H](C)O)NC(=O)[C@H]([C@H](O)[C@@H](O)c3ccc(O)cc3)NC(=O)[C@@H]3C[C@@H](O)CN3C(=O)[C@H]([C@@H](C)O)NC2=O)c1 (X27-[Orn(4R-OH,5R-OH)]T[Hyp][hTyr(3S-OH,4S-OH)]T[Pro(3S-OH,4S-Me)]; lactam 1-C)	20 mg/kg	7.4 mg/kg		
CCCCCCCC[S+]([O-])c1ccc(C(=O)N[C@H]2C[C@@H](O)[C@@H](O)NC(=O)[C@@H]3[C@@H](O)[C@@H](C)CN3C(=O)[C@H]([C@@H](C)O)NC(=O)[C@H]([C@H](O)[C@@H](O)c3ccc(O)cc3)NC(=O)[C@@H]3C[C@@H](O)CN3C(=O)[C@H]([C@@H](C)O)NC2=O)cc1 (stereo partly drawn) (X28-[Orn(4R-OH,5R-OH)]T[Hyp][hTyr(3S-OH,4S-OH)]T[Pro(3S-OH,4S-Me)]; lactam 1-C)	> 40 mg/kg	56.6 mg/kg		
CCCCCCOc1ccc(C=CC(=O)N[C@H]2C[C@@H](O)[C@@H](O)NC(=O)[C@@H]3[C@@H](O)[C@@H](C)CN3C(=O)[C@H]([C@@H](C)O)NC(=O)[C@H]([C@H](O)[C@@H](O)c3ccc(O)cc3)NC(=O)[C@@H]3C[C@@H](O)CN3C(=O)[C@H]([C@@H](C)O)NC2=O)cc1 [drawing 139] (X19-[Orn(4R-OH,5R-OH)]T[Hyp][hTyr(3S-OH,4S-OH)]T[Pro(3S-OH,4S-Me)]; lactam 1-C)			0.156 μg/disc	1.25 μg/disc
CCCCCCCCOc1ccc(C=CC(=O)N[C@H]2C[C@@H](O)[C@@H](O)NC(=O)[C@@H]3[C@@H](O)[C@@H](C)CN3C(=O)[C@H]([C@@H](C)O)NC(=O)[C@H]([C@H](O)[C@@H](O)c3ccc(O)cc3)NC(=O)[C@@H]3C[C@@H](O)CN3C(=O)[C@H]([C@@H](C)O)NC2=O)cc1 [drawing 140] (X16-[Orn(4R-OH,5R-OH)]T[Hyp][hTyr(3S-OH,4S-OH)]T[Pro(3S-OH,4S-Me)]; lactam 1-C)			0.156 μg/disc	0.156 μg/disc
CCCCCCCCOc1cccc(CC(=O)N[C@H]2C[C@@H](O)[C@@H](O)NC(=O)[C@@H]3[C@@H](O)[C@@H](C)CN3C(=O)[C@H]([C@@H](C)O)NC(=O)[C@H]([C@H](O)[C@@H](O)c3ccc(O)cc3)NC(=O)[C@@H]3C[C@@H](O)CN3C(=O)[C@H]([C@@H](C)O)NC2=O)c1 [drawing 141] (X15-[Orn(4R-OH,5R-OH)]T[Hyp][hTyr(3S-OH,4S-OH)]T[Pro(3S-OH,4S-Me)]; lactam 1-C)			80 μg/disc	5 μg/disc
CCCCCCCCCCCCOc1ccc(CC(=O)N[C@H]2C[C@@H](O)[C@@H](O)NC(=O)[C@@H]3[C@@H](O)[C@@H](C)CN3C(=O)[C@H]([C@@H](C)O)NC(=O)[C@H]([C@H](O)[C@@H](O)c3ccc(O)cc3)NC(=O)[C@@H]3C[C@@H](O)CN3C(=O)[C@H]([C@@H](C)O)NC2=O)cc1 [drawing 142] (X18-[Orn(4R-OH,5R-OH)]T[Hyp][hTyr(3S-OH,4S-OH)]T[Pro(3S-OH,4S-Me)]; lactam 1-C)			0.625 μg/disc	0.312 μg/disc
